The source of these data is EP1925615B1, “Method of fluorine-18 labelling of tropane derivatives” (Orphachem, priority 2006, dated 2008).

Each structure is given as a SMILES string.

The target in data set [1] is dopamine transporter (DAT). The conditions noted are these: dopamine transporter (DAT) ligand; cited from earlier work.
For data set [2], the target named is norepinephrine transporter (Homo sapiens, UniProt P23975). As to conditions: cited from earlier work.
Another data set deals with serotonine transporter (Homo sapiens, UniProt P31645). As to conditions: cited from earlier work.
A short description of data set [3]: Chemical and radiochemical stability of the radiotracer preparation by HPLC. The format is physicochemical. The conditions noted are these: preparation ready for i.v. injection (physiological saline, ethanol below 10%); HPLC D at regular 15-min intervals during 120 min. The procedure: Quality controls of [^18F]LBT-999 ([^18F]-10) were performed on an aliquot of the preparation ready for i.v. injection. The radiotracer preparation was a clear and colourless solution with a measured pH between 5 and 7.
Quality control of [^18F]LBT-999 ([^18F]-10). The radiotracer preparation was visually inspected for clarity, absence of colour and particulates. An aliquot of the preparation was removed for determination of pH using standard pH-paper. Chemical and radiochemical purities were also assessed on this aliquot by HPLC (HPLC D), with a sample of authentic 10 (tR : 2.25 min) which synthesis and characterization were disclosed in Dollé F et al., 2006. Particular attention was paid to the absence of non-radioactive precursor 9 (tR: 3.45 min). Chemical and radiochemical stability of the entire preparation was tested by HPLC (HPLC D) at regular 15-min intervals during 120 min. Specific radioactivity of the radiotracer was calculated from three consecutive HPLC (HPLC D) analyses (average) and determined as follows: The area of the UV absorbance peak corresponding to the radiolabelled product was measured (integrated) on the HPLC chromatogram and compared to a standard curve relating mass to UV absorbance.

Sequence of serotonine transporter (P31645 whole entry): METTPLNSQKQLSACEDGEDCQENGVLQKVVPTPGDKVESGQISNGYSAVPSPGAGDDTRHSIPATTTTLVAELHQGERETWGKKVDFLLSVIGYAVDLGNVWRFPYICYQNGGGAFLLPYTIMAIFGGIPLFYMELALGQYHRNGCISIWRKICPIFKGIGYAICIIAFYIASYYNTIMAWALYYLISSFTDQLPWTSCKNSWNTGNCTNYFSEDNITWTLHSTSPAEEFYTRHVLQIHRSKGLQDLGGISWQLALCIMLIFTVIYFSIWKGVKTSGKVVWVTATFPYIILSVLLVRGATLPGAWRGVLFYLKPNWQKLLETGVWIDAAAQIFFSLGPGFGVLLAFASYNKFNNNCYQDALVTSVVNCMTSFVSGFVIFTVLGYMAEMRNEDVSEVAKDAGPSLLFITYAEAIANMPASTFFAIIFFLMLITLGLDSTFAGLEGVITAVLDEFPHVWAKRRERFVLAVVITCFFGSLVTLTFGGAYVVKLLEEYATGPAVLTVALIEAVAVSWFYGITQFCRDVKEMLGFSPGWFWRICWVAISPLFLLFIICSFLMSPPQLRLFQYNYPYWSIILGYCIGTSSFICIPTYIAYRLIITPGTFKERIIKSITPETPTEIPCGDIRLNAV
Sequence of norepinephrine transporter (P23975 whole entry): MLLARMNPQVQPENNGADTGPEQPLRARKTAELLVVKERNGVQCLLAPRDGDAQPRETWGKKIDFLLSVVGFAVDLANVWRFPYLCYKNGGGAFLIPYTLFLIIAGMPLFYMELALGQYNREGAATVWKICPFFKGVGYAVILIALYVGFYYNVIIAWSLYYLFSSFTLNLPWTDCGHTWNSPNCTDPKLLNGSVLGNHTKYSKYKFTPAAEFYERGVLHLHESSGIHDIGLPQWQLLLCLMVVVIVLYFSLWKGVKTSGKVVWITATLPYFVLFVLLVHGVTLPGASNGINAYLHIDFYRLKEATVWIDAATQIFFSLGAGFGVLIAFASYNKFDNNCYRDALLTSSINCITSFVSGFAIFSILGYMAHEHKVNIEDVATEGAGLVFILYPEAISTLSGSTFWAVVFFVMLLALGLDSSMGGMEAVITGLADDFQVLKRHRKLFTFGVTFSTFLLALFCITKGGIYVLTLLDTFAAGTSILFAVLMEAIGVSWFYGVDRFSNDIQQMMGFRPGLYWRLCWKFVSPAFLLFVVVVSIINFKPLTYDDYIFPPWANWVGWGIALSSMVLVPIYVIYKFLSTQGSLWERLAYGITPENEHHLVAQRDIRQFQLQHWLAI

Broadly, the Kd is the free concentration of one partner at which half of the binding sites on the other are occupied at equilibrium, for simple one-to-one binding. By IC50 is commonly meant the concentration that inhibits the measured activity by half. Turning to `COC(=O)[C@H]1[C@@H](c2ccc(C)cc2)C[C@@H]2CC[C@H]1N2C/C=C/CF` [LBT-999, 8-((E)-4-fluoro-but-2-enyl)-3β-p-tolyl-8-aza-bicyclo[3.2.1]octane-2β-carboxylic acid methyl ester], in data set [1], the Kd is 9 nM. Further, the IC50 (in data set [2]; on serotonine transporter) was above 1000 nM each time.
As to `COC(=O)[C@H]1[C@@H](c2ccc(C)cc2)C[C@@H]2CC[C@H]1N2C/C=C/C[18F]` [[^18F]LBT-999, 8-((E)-4-[^18F]fluoro-but-2-enyl)-3β-p-tolyl-8-aza-bicyclo-[3.2.1]octane-2β-carboxylic acid methyl ester], the “chemically and radiochemically stable” value in data set [3] is listed as “at least 120 minutes”.
